Data reported in PMC12920294, “Optimizing uPAR-targeting radiopeptides for improved tissue distribution: progress towards radionuclide therapy” (European Journal of Nuclear Medicine and Molecular Imaging, 2025).
Like-named read-outs stand apart in the source and are kept apart here.

Tests used:
[1] = in vivo; settings: CD1 nude, mouse, 0.5 nmol/mouse, total radioactivity
Method: (§2) HEK-uPAR xenografted mice were injected with the respective radiopeptide (5 MBq, 0.5 nmol/mouse, 100 µL 0.9% NaCl containing 0.05% BSA) and sacrificed at 4 h and 24 h after injection. […] The tissues and organs of interest were collected, weighed and counted for activity using a γ-counter (Wallac Wizard 1480, PerkinElmer). […] The results were presented as the average ± SD of n = 3 mice. The time-activity curves were determined for the uptake of [^177Lu]Lu-DOTA-AE105 and [^177Lu]Lu-uPAR-11 in the blood, HEK-uPAR xenografts, kidneys and liver based on non-decay corrected biodistribution data. For the blood, the initial uptake (t = 0) was set as 50% IA/g assuming a blood volume of 2 mL for CD1 nude mice. The initial uptake value (t = 0) for all other organs and tissues was set as 0% IA/g. […] The area under the curves over 48 h after injection (AUC0h→48 h) was calculated using GraphPad Prism software (version 10.1.1). Statistical analyses were performed by applying a one-way ANOVA test with a Dunnet’s multiple comparison post‐test to compare the data of the new radiopeptides with those of [^177Lu]Lu-DOTA-AE105 and a Tukey’s multiple comparisons post‐test to compare the novel radiopeptides among them. A p-value of < 0.05 was considered a statistically significant difference using GraphPad Prism software (version 10.1.1).

[2] = test system: HEK-uPAR xenograft-bearing mice; settings: mouse, in vivo
Method: as §2

[3] = type: in vitro ADME; settings: 1 µM
Method: The ^177Lu-labeled peptides (50 MBq/nmol) were incubated in mouse or human blood plasma (10 MBq/200 µL) over an incubation period of 24 h at 37 °C. Aliquots and control samples of the radiopeptides diluted in saline were analyzed after 1 h, 4 h and 24 h using thin layer chromatography (TLC) as previously reported (Supplementary Material). The distribution coefficients (logD values) of the ^177Lu-labeled peptides (50 MBq/nmol) were determined using a shake-flask method according to a previously published procedure (Supplementary Material).
Methods: A sample of each radiopeptide (50 MBq/nmol) was added to mouse blood plasma (Lot: 32321, Rockland Immunochemicals Inc., USA) or to human blood plasma (Stiftung Blutspende SRK Aargau-Solothurn, Switzerland) to obtain an activity concentration of 10 MBq/200 µL. The test samples were incubated at 37 °C for up to 24 h. Control samples referred to the radiopeptides which were instead diluted in saline at an activity concentration of 10 MBq/200 µL. Aliquots of each sample (2 µL, ~100 kBq) were taken after 1 h, 4 h and 24 h and investigated by means of thin layer chromatography (TLC). The employed method involved reversed-phase TLC plates (MERCK Analytical Chromatography, TLC Silica gel 60 RP-18 F254s) as stationary phase and ACN/citrate buffer (3:7; v/v; pH 5.5) as mobile phase. After the eluent reached the front line, the TLC plates were dried and exposed to a phosphor screen (Super resolution screen PSR10450013, PerkinElmer) for 1 min. The respective screen was developed using a storage phosphor system (Cyclone Plus, PerkinElmer) and analyzed using the OptiQuant Software (version 5.0, Bright Instrument Co Ltd., PerkinElmer).

[4] = target: T1, mouse serum albumin (Mus musculus, UniProt P07724); type: in vitro ADME
T1 construct: tissue Rockland Immunochemicals Inc., USA Lot: 32321; host or cells: mouse blood plasma
Method: (§1) The albumin-binding properties of the radiopeptides in mouse and human blood plasma were determined using an ultrafiltration assay with Amicon centrifugal filters (cut-off of 10 kDa; Merck Millipore) as previously reported (Supplementary Material). A fixed amount of the respective radiopeptide (~ 300 kBq, 15 µL, 6 pmol) was added to a defined volume (150 µL) of mouse and human blood plasma dilutions to obtain [mouse serum albumin]-to-[radiopeptide] molar concentration ratios of 0.01‒12,500 and [human serum albumin]-to-[radiopeptide] molar concentration ratios of 0.01‒20,000. The data were analyzed using a semi-logarithmic Hill plot with the maximum binding set as 100% using GraphPad Prism software (version 10.1.1). The half-maximum binding (B50 values) of each radiopeptide was expressed as relative values using the inverse ratios with the value of [^177Lu]Lu-uPAR-11 set as 1.0. […] The samples were incubated at 37 °C for 30 min. Ice-cold PBS (150 µL, pH 7.4) was added before loading the blood plasma samples on Amicon centrifugal filters (cut-off of 10 kDa; Merck Millipore) followed by centrifugation (14000 rcf, 4 °C, 30 min) to allow the separation of the plasma protein-bound from the unbound (free) fractions of each sample. The inserts of the filter devices were inverted and centrifuged at 200 rcf for 3 min to recover the protein-bound radiopeptide. The activity of the protein-bound fraction was measured using a γ-counter (Wallac Wizard 1480, PerkinElmer). The activity in the filtrate and filter unit was counted in the γ-counter and the counts were combined, assuming that the fraction retained in the filter membrane was not bound to proteins. The protein-bound fraction was expressed as percentage of the whole activity (i.e. plasma protein-bound activity, activity measured in the filtrate and activity measured in the filter (set as 100%)). The data were analyzed using a semi-logarithmic plot assuming a maximum binding of 100%. The Hill equation was fitted to the data points, and the half-maximum binding (B50) was determined based on the obtained binding curves using GraphPad Prism software (version 10.1.1). To quantitatively express and compare the albumin-binding properties of the radiopeptides, the relative albumin-binding affinity was expressed as the inverse half-maximal-binding (B50) of the respective radioligand to that of [^177Lu]Lu-uPAR-11, which was set as 1.0. The results were presented as the value obtained from the average curve from 3 independent experiments.

[5] = target: human serum albumin (Homo sapiens, UniProt P02768); type: in vitro ADME; design: tissue Stiftung Blutspende SRK Aargau-Solothurn, Switzerland; host or cells: human blood plasma
Method: as §1

T1 sequence (P07724 25-608): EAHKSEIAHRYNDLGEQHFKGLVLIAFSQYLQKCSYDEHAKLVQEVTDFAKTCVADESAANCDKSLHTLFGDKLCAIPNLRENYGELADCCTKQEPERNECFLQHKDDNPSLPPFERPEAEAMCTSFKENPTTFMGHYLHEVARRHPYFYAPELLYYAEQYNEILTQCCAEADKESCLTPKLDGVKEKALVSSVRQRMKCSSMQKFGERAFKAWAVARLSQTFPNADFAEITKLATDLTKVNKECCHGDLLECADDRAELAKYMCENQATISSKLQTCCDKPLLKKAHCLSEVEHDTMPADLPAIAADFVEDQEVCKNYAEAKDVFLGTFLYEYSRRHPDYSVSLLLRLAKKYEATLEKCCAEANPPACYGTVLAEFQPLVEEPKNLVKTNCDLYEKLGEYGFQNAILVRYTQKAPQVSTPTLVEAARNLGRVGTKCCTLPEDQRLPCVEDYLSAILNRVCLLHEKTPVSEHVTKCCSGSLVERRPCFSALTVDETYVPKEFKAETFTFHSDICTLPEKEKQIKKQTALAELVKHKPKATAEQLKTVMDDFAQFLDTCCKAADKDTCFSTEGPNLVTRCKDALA
Sequence of human serum albumin (P02768 25-609): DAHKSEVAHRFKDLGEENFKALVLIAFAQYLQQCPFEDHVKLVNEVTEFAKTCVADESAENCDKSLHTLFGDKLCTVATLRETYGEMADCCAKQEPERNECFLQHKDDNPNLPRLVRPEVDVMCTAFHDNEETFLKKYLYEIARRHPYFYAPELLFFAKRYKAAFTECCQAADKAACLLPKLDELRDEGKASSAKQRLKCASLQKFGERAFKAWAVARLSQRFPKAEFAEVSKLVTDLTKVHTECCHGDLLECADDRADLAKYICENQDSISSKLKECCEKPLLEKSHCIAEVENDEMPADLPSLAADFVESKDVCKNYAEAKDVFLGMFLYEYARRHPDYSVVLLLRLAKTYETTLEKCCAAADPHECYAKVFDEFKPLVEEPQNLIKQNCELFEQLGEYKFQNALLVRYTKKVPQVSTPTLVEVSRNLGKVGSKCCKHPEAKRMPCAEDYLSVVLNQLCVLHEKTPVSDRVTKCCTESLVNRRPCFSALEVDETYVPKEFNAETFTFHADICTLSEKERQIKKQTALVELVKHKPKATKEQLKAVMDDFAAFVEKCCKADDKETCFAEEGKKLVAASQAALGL

SMILES: Cc1ccc(CCCC(=O)NCCOCCOCCOCCC(=O)NCCCC[C@H](NC(=O)CN2CCN(CC(=O)O)CCN(CC(=O)O)CCN(CC(=O)O)CC2)C(=O)N[C@@H](CC(=O)O)C(=O)N[C@@H](CC2CCCCC2)C(=O)N[C@@H](Cc2ccccc2)C(=O)N[C@H](CO)C(=O)N[C@H](CCCNC(=N)N)C(=O)N[C@@H](Cc2ccc(O)cc2)C(=O)N[C@@H](CC(C)C)C(=O)N[C@@H](Cc2c[nH]c3ccccc23)C(=O)N[C@@H](CO)C(N)=O)cc1 [[^177Lu]Lu-uPAR-15, metal not drawn]
- tissue uptake at 4 h ([1]; Blood uptake): 4.5 ± 0.5 %ID/g
- tissue uptake at 24 h ([1]; Blood uptake): 0.04 ± 0.01 %ID/g
- tissue uptake at 4 h ([1]; Bone uptake): 0.66 ± 0.05 %ID/g
- tissue uptake at 24 h ([1]; Bone uptake): 0.12 ± 0.03 %ID/g
- tissue uptake at 4 h ([1]; Brain uptake): 0.1 ± 0.02 %ID/g
- tissue uptake at 24 h ([1]; Brain uptake): < 0.03 %ID/g
- tissue uptake at 4 h ([1]; HEK-uPAR xenograft uptake): 12 ± 1 %ID/g
- tissue uptake at 24 h ([1]; HEK-uPAR xenograft uptake): 3.1 ± 0.8 %ID/g
- tissue uptake at 4 h ([1]; Heart uptake): 1.6 ± 0.2 %ID/g
- tissue uptake at 24 h ([1]; Heart uptake): 0.13 ± 0.01 %ID/g
- tissue uptake at 4 h ([1]; Intestines uptake): 0.74 ± 0.15 %ID/g
- tissue uptake at 24 h ([1]; Intestines uptake): 0.16 ± 0.03 %ID/g
- tissue uptake at 4 h ([1]; Kidneys uptake): 3.9 ± 0.6 %ID/g
- tissue uptake at 24 h ([1]; Kidneys uptake): 2 ± 0.3 %ID/g
- tissue uptake at 4 h ([1]; Liver uptake): 1.6 ± 0.2 %ID/g
- tissue uptake at 24 h ([1]; Liver uptake): 0.5 ± 0.11 %ID/g
- tissue uptake at 4 h ([1]; Lung uptake): 2.6 ± 0.4 %ID/g
- tissue uptake at 24 h ([1]; Lung uptake): 0.27 ± 0.06 %ID/g
- tissue uptake at 4 h ([1]; Muscle uptake): 0.41 ± 0.1 %ID/g
- tissue uptake at 24 h ([1]; Muscle uptake): 0.05 ± 0.01 %ID/g
- tissue uptake at 4 h ([1]; Pancreas uptake): 0.61 ± 0.1 %ID/g
- tissue uptake at 24 h ([1]; Pancreas uptake): 0.09 ± 0.02 %ID/g
- tissue uptake at 4 h ([1]; Salivary glands uptake): 1.2 ± 0.2 %ID/g
- tissue uptake at 24 h ([1]; Salivary glands uptake): 0.21 ± 0.03 %ID/g
- tissue uptake at 4 h ([1]; Spleen uptake): 0.93 ± 0.09 %ID/g
- tissue uptake at 24 h ([1]; Spleen uptake): 0.51 ± 0.23 %ID/g
- tissue uptake at 4 h ([1]; Stomach uptake): 0.67 ± 0.11 %ID/g
- tissue uptake at 24 h ([1]; Stomach uptake): 0.12 ± 0.03 %ID/g
- Xgrft-to-liver ratio [2]: 6.5 ± 1.7
- Human blood plasma stability, intact radiopeptide ([3]; 1 h): 100 ± 1%
- Mouse blood plasma stability, intact radiopeptide ([3]; 1 h): 100 ± 1%
- Human blood plasma stability, intact radiopeptide ([3]; 4 h): 99 ± 1%
- Mouse blood plasma stability, intact radiopeptide ([3]; 4 h): 99 ± 1%
- Human blood plasma stability, intact radiopeptide ([3]; 24 h): 96 ± 1%
- Mouse blood plasma stability, intact radiopeptide ([3]; 24 h): 94 ± 2%
- Albumin-binding affinity relative to [177Lu]Lu-uPAR-11 [4]: 0.50‒0.77
- Albumin-binding properties, relative values (inverse B50 ratio) [4]: 0.77
- Inverse relative albumin-binding affinity [5]: 0.77

SMILES: Cc1ccc(CCCC(=O)NCCOCCOCCOCCOCCC(=O)NC[C@H](NC(=O)CN2CCN(CC(=O)O)CCN(CC(=O)O)CCN(CC(=O)O)CC2)C(=O)N[C@@H](CC(=O)O)C(=O)N[C@@H](CC2CCCCC2)C(=O)N[C@@H](Cc2ccccc2)C(=O)N[C@H](CO)C(=O)N[C@H](CCCNC(=N)N)C(=O)N[C@@H](Cc2ccc(O)cc2)C(=O)N[C@@H](CC(C)C)C(=O)N[C@@H](Cc2c[nH]c3ccccc23)C(=O)N[C@@H](CO)C(N)=O)cc1 [[^177Lu]Lu-uPAR-14, metal not drawn]
- tissue uptake at 4 h ([1]; Blood uptake): 4.5 ± 0.2 %ID/g
- tissue uptake at 24 h ([1]; Blood uptake): 0.06 ± 0.01 %ID/g
- tissue uptake at 4 h ([1]; Bone uptake): 0.66 ± 0.09 %ID/g
- tissue uptake at 24 h ([1]; Bone uptake): 0.19 ± 0.03 %ID/g
- tissue uptake at 4 h ([1]; Brain uptake): 0.1 ± 0.01 %ID/g
- tissue uptake at 24 h ([1]; Brain uptake): < 0.03 %ID/g
- tissue uptake at 4 h ([1]; HEK-uPAR xenograft uptake): 9 ± 0.5 %ID/g
- tissue uptake at 24 h ([1]; HEK-uPAR xenograft uptake): 3.4 ± 0.3 %ID/g
- tissue uptake at 4 h ([1]; Heart uptake): 1.7 ± 0.1 %ID/g
- tissue uptake at 24 h ([1]; Heart uptake): 0.15 ± 0.01 %ID/g
- tissue uptake at 4 h ([1]; Intestines uptake): 0.81 ± 0.04 %ID/g
- tissue uptake at 24 h ([1]; Intestines uptake): 0.21 ± 0.03 %ID/g
- tissue uptake at 4 h ([1]; Kidneys uptake): 4 ± 0.3 %ID/g
- tissue uptake at 24 h ([1]; Kidneys uptake): 2 ± 0.3 %ID/g
- tissue uptake at 4 h ([1]; Liver uptake): 2 ± 0.2 %ID/g
- tissue uptake at 24 h ([1]; Liver uptake): 0.47 ± 0.05 %ID/g
- tissue uptake at 4 h ([1]; Lung uptake): 3 ± 0.6 %ID/g
- tissue uptake at 24 h ([1]; Lung uptake): 0.3 ± 0.02 %ID/g
- tissue uptake at 4 h ([1]; Muscle uptake): 0.51 ± 0.02 %ID/g
- tissue uptake at 24 h ([1]; Muscle uptake): 0.05 ± 0.01 %ID/g
- tissue uptake at 4 h ([1]; Pancreas uptake): 0.68 ± 0.03 %ID/g
- tissue uptake at 24 h ([1]; Pancreas uptake): 0.12 ± 0.01 %ID/g
- tissue uptake at 4 h ([1]; Salivary glands uptake): 1.1 ± 0.1 %ID/g
- tissue uptake at 24 h ([1]; Salivary glands uptake): 0.26 ± 0.03 %ID/g
- tissue uptake at 4 h ([1]; Spleen uptake): 0.99 ± 0.08 %ID/g
- tissue uptake at 24 h ([1]; Spleen uptake): 0.54 ± 0.11 %ID/g
- tissue uptake at 4 h ([1]; Stomach uptake): 0.69 ± 0.13 %ID/g
- tissue uptake at 24 h ([1]; Stomach uptake): 0.16 ± 0.03 %ID/g
- Xgrft-to-liver ratio [2]: 7.4 ± 1.0
- Human blood plasma stability, intact radiopeptide ([3]; 1 h): 100 ± 1%
- Mouse blood plasma stability, intact radiopeptide ([3]; 1 h): 100 ± 1%
- Human blood plasma stability, intact radiopeptide ([3]; 4 h): 100 ± 1%
- Mouse blood plasma stability, intact radiopeptide ([3]; 4 h): 97 ± 4%
- Human blood plasma stability, intact radiopeptide ([3]; 24 h): 97 ± 2%
- Mouse blood plasma stability, intact radiopeptide ([3]; 24 h): 99 ± 2%
- Albumin-binding affinity relative to [177Lu]Lu-uPAR-11 [4]: 0.50‒0.77
- Albumin-binding properties, relative values (inverse B50 ratio) [4]: 0.66
- Inverse relative albumin-binding affinity [5]: 0.50
